Each structure is given as a SMILES string. pEC50: −log10 of the molar value.

One assay has as its system recombinant NL4-3 virus (NLRluc, Renilla luciferase in nef, Gag P373S). As to the kind of experiment: HIV cell culture assay (Renilla luciferase reporter virus in MT-2 cells). The assay is classed as cell-based. Particulars: Renilla, NL43, read-out: 10% FBS EC50, 10% FBS, class symbols A/B/C. On the procedure:
MT-2 cells and 293T cells were obtained from the NIH AIDS Research and Reference Reagent Program. MT-2 cells were propagated in RPMI 1640 media supplemented with 10% heat inactivated fetal bovine serum, […]. The 293T cells were propagated in DMEM media supplemented with 10% heat inactivated fetal bovine serum (FBS), 100 units/ml penicillin G and 100 μg/ml streptomycin. The proviral DNA clone of NL4-3 was obtained from the NIH AIDS Research and Reference Reagent Program. A recombinant NL4-3 virus, in which a section of the nef gene from NL4-3 was replaced with the Renilla luciferase gene, was used as a reference virus. In addition, residue Gag P373 was converted to P373S. Briefly, the recombinant virus was prepared by transfection of the altered proviral clone of NL4-3. Transfections were performed in 293T cells using LipofectAMINE PLUS from Invitrogen (Carlsbad, Calif.), according to manufacturer's instruction. The virus was titered in MT-2 cells using luciferase enzyme activity as a marker. Luciferase was quantitated using the Dual Luciferase kit from Promega (Madison, Wis.), with modifications to the manufacturer's protocol. The diluted Passive Lysis solution was pre-mixed with the re-suspended Luciferase Assay Reagent and the re-suspended Stop & Glo Substrate (2:1:1 ratio). Fifty (50) μL of the mixture was added to each aspirated well on assay plates and luciferase activity was measured immediately on a Wallac TriLux (Perkin-Elmer). Antiviral activities of inhibitors toward the recombinant virus were quantified by measuring luciferase activity in cells infected for 4-5 days with NLRluc recombinants in the presence serial dilutions of the inhibitor. Table 16 is the key for the data in Table 17.
Regarding `CN1CCC2C(C)(C)[C@H](c3ccc(C(=O)O)cc3)CC[C@]2(C)C1` (single isomer, unassigned) [Example 90], the pEC50 was less than 5.52. For the compound `CN1CCC2C(C)(C)[C@@H](c3ccc(C(=O)O)cc3)CC[C@]2(C)C1` (single isomer, unassigned) [Example 91], the pEC50 was less than 5.52.

Turning to `CC1(C)C(c2ccc(C(=O)O)cc2)=CC[C@]2(C)CN(C(=O)c3ccccc3)CC=C12` [Example 1, (S)-4-(2-benzoyl-5,5,8a-trimethyl-1,2,3,5,8,8a-hexahydroisoquinolin-6-yl)benzoic acid], the pEC50 was less than 5.52. The same measure, in the same setting: in the case of `CC1(C)C(c2ccc(C(=O)O)cc2)=CC[C@]2(C)CN(C(=O)c3cccc(F)c3)CC=C12` [Example 2] it was less than 5.52. The same measure, in the same setting: to `CC1(C)C(c2ccc(C(=O)O)cc2)=CC[C@]2(C)CN(C(=O)c3ccc(F)cc3)CC=C12` [Example 3] belongs less than 5.52. Still for that read-out and setting: in the case of `CC1(C)C(c2ccc(C(=O)O)cc2)=CC[C@]2(C)CN(C(=O)c3cccc(F)c3F)CC=C12` [Example 4] it was less than 5.52. For `CC1(C)C(c2ccc(C(=O)O)cc2)=CC[C@]2(C)CN(C(=O)c3ccc(F)cc3F)CC=C12` [Example 5], the pEC50 was less than 5.52. The same measure, in the same setting: to `CC1(C)C(c2ccc(C(=O)O)cc2)=CC[C@]2(C)CN(C(=O)c3cc(F)ccc3F)CC=C12` [Example 6] belongs less than 5.52; to `CC1(C)C(c2ccc(C(=O)O)cc2)=CC[C@]2(C)CN(C(=O)c3ccc(F)c(F)c3)CC=C12` [Example 7], less than 5.52.

As to `CC1(C)C(c2ccc(C(=O)O)cc2)=CC[C@]2(C)CN(C(=O)c3cc(F)cc(F)c3)CC=C12` [Example 8], the pEC50 was less than 5.52. The same measure, in the same setting: in the case of `CC1(C)C(c2ccc(C(=O)O)cc2)=CC[C@]2(C)CN(C(=O)C(=O)N3CC=C4C(C)(C)C(c5ccc(C(=O)O)cc5)=CC[C@]4(C)C3)CC=C12` [Example 9] it was less than 5.52; in that of `CC1(C)C(c2ccc(C(=O)O)cc2)=CC[C@]2(C)CN(C(=O)C(=O)O)CC=C12` [Example 10], less than 5.52; in that of `CC1(C)C(c2ccc(C(=O)O)cc2)=CC[C@]2(C)CN(C(=O)c3cccc(C(=O)O)c3)CC=C12` [Example 12], less than 5.52. For the compound `CC1(C)C(c2ccc(C(=O)O)cc2)=CC[C@]2(C)CN(C(=O)c3ccc(C(=O)O)cc3)CC=C12` [Example 13], the pEC50 was less than 5.52. On the same count and under the same terms, to `CC1(C)C(c2ccc(C(=O)O)cc2)=CC[C@]2(C)CN(C(=O)c3ccccc3C(=O)O)CC=C12` [Example 14] belongs less than 5.52; to `CC(C)(C)OC(=O)N[C@H]1CC[C@H](C(=O)N2CC=C3C(C)(C)C(c4ccc(C(=O)O)cc4)=CC[C@]3(C)C2)CC1` [Example 15], less than 5.52; to `CC(C)(C)OC(=O)N[C@H]1CC[C@@H](C(=O)N2CC=C3C(C)(C)C(c4ccc(C(=O)O)cc4)=CC[C@]3(C)C2)CC1` [Example 16], less than 5.52. Still for that read-out and setting: in the case of `COc1cccc(C(=O)N2CC=C3C(C)(C)C(c4ccc(C(=O)O)cc4)=CC[C@]3(C)C2)c1` [Example 18] it was less than 5.52; in that of `COc1ccc(C(=O)N2CC=C3C(C)(C)C(c4ccc(C(=O)O)cc4)=CC[C@]3(C)C2)cc1` [Example 19], less than 5.52; in that of `CC1(C)C(c2ccc(C(=O)O)cc2)=CC[C@]2(C)CN(C(=O)c3ccccc3C(N)=O)CC=C12` [Example 20], less than 5.52. The same measure, in the same setting: in the case of `CC1(C)C(c2ccc(C(=O)O)cc2)=CC[C@]2(C)CN(C(=O)c3cccc(C(N)=O)c3)CC=C12` [Example 21] it was less than 5.52.

In the case of `CC1(C)C(c2ccc(C(=O)O)cc2)=CC[C@]2(C)CN(C(=O)c3ccc(C(N)=O)cc3)CC=C12` [Example 22], the pEC50 was less than 5.52. For the compound `CN(C)c1ccccc1C(=O)N1CC=C2C(C)(C)C(c3ccc(C(=O)O)cc3)=CC[C@]2(C)C1` [Example 23], the pEC50 was less than 5.52. For the compound `CN(C)c1cccc(C(=O)N2CC=C3C(C)(C)C(c4ccc(C(=O)O)cc4)=CC[C@]3(C)C2)c1` [Example 24], the pEC50 is less than 5.52. `CN(C)c1ccc(C(=O)N2CC=C3C(C)(C)C(c4ccc(C(=O)O)cc4)=CC[C@]3(C)C2)cc1` [Example 25]: the pEC50 was less than 5.52. The same measure, in the same setting: in the case of `CC1(C)C(c2ccc(C(=O)O)cc2)=CC[C@]2(C)CN(C(=O)c3cccc(N4CCOCC4)c3)CC=C12` [Example 27] it was less than 5.52; in that of `CC1(C)C(c2ccc(C(=O)O)cc2)=CC[C@]2(C)CN(C(=O)c3ccc(N4CCOCC4)cc3)CC=C12` [Example 28], less than 5.52. Regarding `CN1CCN(c2cccc(C(=O)N3CC=C4C(C)(C)C(c5ccc(C(=O)O)cc5)=CC[C@]4(C)C3)c2)CC1` [Example 29], the pEC50 is less than 5.52. As to `CC1(C)C(c2ccc(C(=O)O)cc2)=CC[C@]2(C)CN(C(=O)c3ccc(CN4CCS(=O)(=O)CC4)cc3)CC=C12` [Example 31], the pEC50 was less than 5.52. As to `CC(C)(C)OC(=O)NCc1ccc(C(=O)N2CC=C3C(C)(C)C(c4ccc(C(=O)O)cc4)=CC[C@]3(C)C2)cc1` [Example 33], the pEC50 is less than 5.52.

Regarding `CN(C)CCC(=O)N1CC=C2C(C)(C)C(c3ccc(C(=O)O)cc3)=CC[C@]2(C)C1` [Example 34], the pEC50 is less than 5.52. Same read-out and setting: to `CN(C)CC(=O)N1CC=C2C(C)(C)C(c3ccc(C(=O)O)cc3)=CC[C@]2(C)C1` [Example 35] belongs less than 5.52. Take `CC1(C)C(c2ccc(C(=O)O)cc2)=CC[C@]2(C)CN(C(=O)CCN3CCS(=O)(=O)CC3)CC=C12` [Example 36]: the pEC50 was less than 5.52.

Take `CC1(C)C(c2ccc(C(=O)O)cc2)=CC[C@]2(C)CN(C(=O)CN3CCS(=O)(=O)CC3)CC=C12` [Example 37]: the pEC50 is less than 5.52. The same measure, in the same setting: to `CC1(C)C(c2ccc(C(=O)O)cc2)=CC[C@]2(C)CN(C(=O)c3cccc(CN4CCS(=O)(=O)CC4)c3)CC=C12` [Example 38] belongs less than 5.52. As to `CC1(C)C(c2ccc(C(=O)O)cc2)=CC[C@]2(C)CN(C(=O)c3ccc4[nH]cnc4c3)CC=C12` [Example 40], the pEC50 was less than 5.52.

On to `Cc1nc2cc(C(=O)N3CC=C4C(C)(C)C(c5ccc(C(=O)O)cc5)=CC[C@]4(C)C3)ccc2[nH]1` [Example 41], for which the pEC50 is less than 5.52. The same measure, in the same setting: to `CC1(C)C(c2ccc(C(=O)O)cc2)=CC[C@]2(C)CN(C(=O)c3ccc4[nH]nnc4c3)CC=C12` [Example 42] belongs less than 5.52.

The same assay, now with this note: Renilla, NL43, read-out: 10% FBS EC50, 10% FBS, numeric values.
For the compound `CC(C)(C)OC(=O)N1CCN(c2ccccc2C(=O)N2CC=C3C(C)(C)C(c4ccc(C(=O)O)cc4)=CC[C@]3(C)C2)CC1` [Example 11, (S)-4-(2-(2-(4-(tert-butoxycarbonyl)piperazin-1-yl)benzoyl)-5,5,8a-trimethyl-1,2,3,5,8,8a-hexahydroisoquinolin-6-yl)benzoic acid], the pEC50 was 6.34. On the same count and under the same terms, in the case of `COc1ccccc1C(=O)N1CC=C2C(C)(C)C(c3ccc(C(=O)O)cc3)=CC[C@]2(C)C1` [Example 17] it was 5.77; in that of `CC1(C)C(c2ccc(C(=O)O)cc2)=CC[C@]2(C)CN(C(=O)c3ccccc3N3CCOCC3)CC=C12` [Example 26], 6.20; in that of `CN1CCN(c2ccc(C(=O)N3CC=C4C(C)(C)C(c5ccc(C(=O)O)cc5)=CC[C@]4(C)C3)cc2)CC1` [Example 30], 5.64. With `COc1ccc(S(=O)(=O)Cc2ccccc2)cc1C(=O)N1CC=C2C(C)(C)C(c3ccc(C(=O)O)cc3)=CC[C@]2(C)C1` [Example 32], the pEC50 was 6.18. Same read-out and setting: to `CC1(C)C(c2ccc(C(=O)O)cc2)=CC[C@]2(C)CN(C(=O)c3ccc4cc[nH]c4c3)CC=C12` [Example 39] belongs 5.83.

Values taken from patent publication US10493070B2 (priority 2016, dated 2019).
